Results on 7 molecules are retold here after patent US20070099232A1, “Ecdysone receptor ligand-binding domain structure” (priority 2003, published 2007).

Experiment [1] relates to BtEcR. Put plainly: BtEcR competitive binding assay with [3H]-ponasterone A as tracer. More on the design: species or system Bemisia tabaci. The text has this: As will be readily understood by persons skilled in this field, the methods of the present invention provide a rational method for designing and selecting compounds which interact with an ecdysone receptor and specifically that of B. tabaci. In the majority of cases these compounds will require further development in order to increase activity. Such further development is routine in this field and will be assisted by the structural information provided in this application and screens employing EcR and optionally USP nucleotide and/or polypeptide sequences. In vitro competitive binding screens compete unlabelled test compounds against a labelled ligand (tracer) to observe if they inhibit the binding of the latter to functional receptor LBDs. In vitro competition binding screens may utilise LBD sequences or D (linker) domain sequences linked to LBD sequences. In vivo cell-based screens employ full-length EcR and optionally full-length USP nucleotide sequences functionally linked to suitable promoters for expression in mammalian, insect or yeast cells containing a suitable reporter gene construct. Alternatively, in vivo cell-based screens may employ the EF or DEF domain encoding regions of EcR and optionally of USP nucleotide sequences functionally linked to nucleotide sequences encoding domains from other transcription factors. In particular, the BtEcR nucleotide sequence (SEQ ID NO 1) and/or polypeptide sequence (SEQ ID NO 2) and optionally BtUSP nucleotide sequence and/or polypeptide sequence or the corresponding EF or DEF domains may be utilised in screens to develop improved compounds derived by rational design employing the B. tabaci EcR/USP crystal structure. It is intended that in particular embodiments the methods of the present invention includes such further developmental steps.
Biological assays to measure the activity of ecdysone receptor agonists and antagonists are well known in the field. Traditional screens for ecdysone receptor agonists examine candidate compounds for an ability to induce the moulting or pupation of whole insect larvae (Becker, 1941; Cymborowski, 1989), the evagination of imaginal discs (Fristrom J. W. & Yund, 1976) or morphological transformation of the Drosophila BII cell line (Clément et al., 1993). More recent assays use mammalian or other eukaryotic cells that have been co-transfected with a recombinant ecdysone receptor and a reporter gene linked to an appropriate response element Both types of screen can also be reformatted to detect non-agonist ligands (antagonists), which can be recognised by their ability to inhibit the activation the receptor by an agonist provided as a standard component of the assay (Yang et al., 1986; Oberdorster et al., 2001)(Oberdorster et al, 2001). […] In addition, potential agonists and antagonists may be screened for their ability to inhibit the binding of europium-labelled ecdysone receptor ligands to soluble, recombinant ecdysone receptor in a microplate-based format Europium is a lanthanide fluorophore, the presence of which can be measured using time-resolved fluorometry. […] Binding affinity and inhibitor potency may also be measured for candidate inhibitors using biosensor technology. […]

Experiment [2] has as its target T1, dipteran (Lucilia cuprina) receptor (Lucilia cuprina, UniProt O18531).
T1 construct: made in house
T1 sequence (O18531 442-677 limits assumed): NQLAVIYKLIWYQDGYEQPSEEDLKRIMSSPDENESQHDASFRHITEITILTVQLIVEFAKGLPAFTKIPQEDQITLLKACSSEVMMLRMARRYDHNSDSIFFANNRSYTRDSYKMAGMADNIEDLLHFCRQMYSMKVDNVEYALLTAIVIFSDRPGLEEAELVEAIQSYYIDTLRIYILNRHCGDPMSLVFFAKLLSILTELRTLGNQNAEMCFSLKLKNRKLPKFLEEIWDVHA
Put plainly: In vitro binding studies employing purified recombinant LBDs (dipteran receptor). The settings on record: unpublished results. The text has this: (§1) Table 3 presents the inter-order variation apparent across a variety of Insecta EcR LBDs for those residues that line the ecdysteroid binding pocket observed in the B. tabaci structure. […] For example, in the hemipteran B. tabaci (resistant to the bisacylhydrazine compounds) residue 272 is methionine, whereas in lepidopteran species (susceptible to bisacylhydrazines) the residue at this position is a smaller valine. Attention has also been drawn to the potential importance of the residue at this position in relation to the control spectrum of bisacylhydrazine insecticides in the communication by Billas et al. (2003) reporting the crystal structure of the lepidopteran Heliothis virescens EcR/USP heterodimeric LBD. It is apparent from Table 3 of the present application that the methionine at position 272 is present in the Hemiptera, Diptera, Orthoptera and Coleoptera while the residue in this position of the Lepidoptera is valine. […] Clearly the response to bisacylhydrazines is not simply dependent on the residue at the position corresponding to 272 in B. tabaci.

Experiment [3] has as its system whitefly (B. tabaci) receptor. The experiment is described as follows: In vitro binding studies employing purified recombinant LBDs (whitefly receptor). Also on record: species or system Bemisia tabaci. The conditions noted are these: unpublished results.
Text: as §1

The test system of experiment [4] is Lepidotera versus Diptera. The settings on record: selectivity at the level of insect orders; cited from earlier work.
The target in experiment [5] is recombinant B. tabaci receptor LBD (BtEcR/BtUSP heterodimer). The experiment is described as follows: Equilibrium binding studies with [3H]-ponasterone A as ligand. The settings on record: by direct curve fitting, recombinant heterodimeric LBD. Also on record: species or system Bemisia tabaci. As to the method: Pilot-scale expression of recombinant heterodimeric BtEcR-BtUSP LBD was achieved by infection of suspension cultures of Sf9, Sf21 and or Hi-5 insect cells in spinner flasks or Schott bottles on a shaker platform maintained at 27° C. Insect cells infected with the virus engineered to express BtEcR/BtUSP ligand-binding domain were shown by gel electrophoresis to contain the expressed polypeptides corresponding to the two tagged domains.

In experiment [6] the test system is BtEcR/BtUSP heterodimer binding to EcRE DNA. Put plainly: Electrophoretic mobility shift assay (EMSA) of receptor binding to EcRE (hsp27 response element). The settings on record: in the presence of 5mM MgCl2; compared to binding without hormone. The experiment is classed as biochemical, Bemisia tabaci. The procedure: DNA binding function was assessed by electrophoretic mobility shift assay (EMSA). For these experiments, EcR and USP proteins were translated as above but using unlabelled methionine. The EcRE probe (hsp27 response element) was prepared by α-^32P labelling 5 pmol of annealed oligo (5′[…]3′ and 5′[…]3′) with Klenow ([…] Labelling Kit, Geneworks). This mix was then phenol/chloroform extracted, ethanol precipitated and resuspended in 100 μl of TE. Binding and electrophoresis were performed as described by (Molloy, 2000). For a 20 μl reaction mix, 2.5 μl of each translated extract was incubated with 8.0 μl of BufferA (20 mM HEPES pH 7.9, 100 mM KCI, 2 mM dithiothreitol (DTT), 1 mM EDTA, 20% (v/v) glycerol), 2 μl of 2% (v/v) NP-40, 1 μl BSA (10 mg/ml), 0.5 μl 2 mg/ml poly (dI-dC).poly(dI-dC), 6 μg single stranded DNA plus or minus 1 μl of 100 mM MgCl2. After 20 minutes at room temperature, 0.05 pmoles of labelled probe was added and the mix was incubated again for 20 minutes. One sample also had the addition of excess (1.25 pmoles) unlabelled EcRE DNA. 10 μl of the mix was analysed by electrophoresis at 4° C., 80 V in a 0.25×TBE, 5% polyacrylamide gel. After fixing and drying, radioactive species were visualized by the Molecular Dynamics Phosphorimaging system. […]
Background: In EMSA bound probe runs differently from free probe, usually more slowly.

Experiment [7] relates to Choristoneura fumiferana EcR A110P. The conditions noted are these: single point mutation A110P; cited from earlier work.

Each structure is given as a SMILES string.

Take `O=C1OC(c2cccs2)=N/C1=C/c1ccccc1` [compound III]: in experiment [1], the “binding in BtEcR competitive binding assay” value was “weak-moderate binding”.
With `CCc1ccc(C(=O)NN(C(=O)c2cc(C)cc(C)c2)C(C)(C)C)cc1` [RH5992], the “binding in BtEcR competitive binding assay” value in experiment [1] is “negligible binding”. Moreover, the “affinity of receptor for compound” value in experiment [2] was “significant affinity”; in experiment [3] it was “only very low affinity”. The “effectiveness against Lepidotera relative to Diptera” value in experiment [4] is “two to three orders of magnitude more effective”.
By Kd is commonly meant the equilibrium constant for the complex coming apart. For `CC(C)CC[C@@H](O)[C@](C)(O)[C@H]1CC[C@@]2(O)C3=CC(=O)[C@@H]4C[C@@H](O)[C@@H](O)C[C@]4(C)[C@H]3CC[C@]12C` [ponasterone A], the Kd in experiment [5] turned out to be 1.21 ± 0.17 nM. Further, the “effect of hormone on binding of receptor heterodimer to EcRE” value in experiment [6] is “clearly enhanced binding”.
On to `O=C(CSC1NCCN1)c1ccccc1` [IV], for which the “binding in BtEcR competitive binding assay” value in experiment [1] was “weak-moderate binding”.
As to `CCc1c(OC)cccc1C(=O)NN(C(=O)c1cc(C)cc(C)c1)C(C)(C)C` [RG-102240], the “effect of A110P point mutation on response of receptor to ligand” value in experiment [7] is “without affecting response”.
Regarding `CC(C)(C)N(NC(=O)c1ccccc1)C(=O)c1ccccc1` [compound I], the “binding in BtEcR competitive binding assay” value in experiment [1] is on record as “negligible binding”.
The same measure, in the same setting: the entry for `CC(C)(C)C(=O)N1N=C(c2ccccc2)OC1(C)c1ccc(F)cc1` (centres unmarked) [compound II] is “negligible binding”.
